Reference: patent US9422240B2, “Partially saturated nitrogen-containing heterocyclic compound” (TAISHO PHARMACEUTICAL CO., LTD, priority 2012, dated 2016)
Where a name gives a salt, the structure may show the parent alone.

biological target: T1, human PHD2 (Homo sapiens (Human), UniProt Q9GZT9); assay: Test 1: human PHD2 inhibitory activity, [14C]-2-oxoglutarate to [14C]-succinic acid radiometric assay with HIF-1α peptide; assay type: biochemical; settings: read-out: Percent inhibition (% at 1 μM)
T1 sequence (Q9GZT9 whole entry): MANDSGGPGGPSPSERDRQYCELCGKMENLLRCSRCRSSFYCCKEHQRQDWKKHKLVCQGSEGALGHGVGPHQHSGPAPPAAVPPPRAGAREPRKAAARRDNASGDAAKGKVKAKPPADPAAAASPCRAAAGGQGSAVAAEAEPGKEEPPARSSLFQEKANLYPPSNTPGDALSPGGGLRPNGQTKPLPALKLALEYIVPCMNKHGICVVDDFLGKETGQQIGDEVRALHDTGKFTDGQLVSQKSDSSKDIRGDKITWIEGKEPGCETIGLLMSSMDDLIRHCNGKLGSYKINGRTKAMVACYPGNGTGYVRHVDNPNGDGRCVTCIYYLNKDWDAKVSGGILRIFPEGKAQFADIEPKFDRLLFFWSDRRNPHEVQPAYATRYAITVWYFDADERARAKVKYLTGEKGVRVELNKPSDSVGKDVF
Experimental: (1) Expression and Preparation of Human PHD2
Human PHD2 was expressed in insect cells (HighFive cells). A registered sequence of human PHD2 (NM_022051) was introduced into the pFastBacl vector (Invitrogen), and the sequence was verified. The vector was introduced into Sf9 insect cells (Invitrogen) to acquire human PHD2 baculovirus. HighFive insect cells (Invitrogen) were infected with this recombinant virus and cultured at 27° C. for 72 hours; thereafter, a cell lysis solution containing various protease inhibitors was added and the cells were disrupted to form a suspension. The suspension of disrupted cells was centrifuged at 4° C. and 100,000×g for 30 minutes and the supernatant was recovered as a cell lysate.
(2) Measurement of Human PHD2 Inhibitory Activity
The activity of human PHD2 enzyme was measured with a substrate which is a 19-residue partial peptide based on the sequence of HIF-1α. Specifically, the conversion of 2-oxoglutarate to succinic acid which would occur simultaneously with the hydroxylation of a proline residue in the peptide with the PHD2 enzyme was utilized. To be more specific, [^14C]-2-oxogiutarate was added to the reaction system to initiate an enzymatic reaction and the [^14C]-2-oxoglutarate remaining after the reaction was bound to 2,4-dinitrophenylhydrazine (DNPH), with the resulting precipitate being removed by passage through a filter. Subsequently, radiation counting was conducted on the resulting [^14C]-succinic acid.
A test compound, HIF-1αpeptide and [^14C]-2-oxoglutarate were preliminarily added onto 96-well plates and reaction was initiated by adding a human PHD2 enzyme solution (4 μg/well). After 15-min incubation at 37° C., a DNPH-containing quench solution was added and the mixture was allowed to stand at room temperature for 30 minutes. Thereafter, an excess of non-radiolabelled 2-oxoglutarate was added and the mixture was allowed to stand at room temperature for 60 minutes. The resulting precipitate was removed by passage through a filter and the radiation count on the [^14C]-succinic acid was quantified (with MicroBeta). Radiation counting was conducted for each well and the human PHD2 inhibitory activity of each test compound was calculated on the basis of the values for the substrate-free group and the test compound-free group.

| Structure (SMILES) | inhibition at 1 µM [%] |
| --- | --- |
| CC1CN(Cc2ccc(OC(F)(F)F)cc2)C(=O)C(C(=O)NCC(=O)O)=C1O (stereo not drawn) [Ex. 1-3, N-({4-Hydroxy-5-methyl-2-oxo-1-[4-(trifluoromethoxy)benzyl]-1,2,5,6-tetrahydropyridin-3-yl}carbonyl)glycine sodium salt] | 74 |

same assay, conditions: test compound's concentration 1 μM; Test 1, [14C]-2-oxoglutarate radiometric assay; read-out: Percent inhibition (% at 1 μM)

| inhibition at 1 µM [%] | Structure (SMILES) |
| --- | --- |
| 78 | O=C(O)CNC(=O)C1=C(O)CC2(CCOCC2)N(Cc2ccc(-c3ccc(C(F)(F)F)cc3)cc2)C1=O [Ex. 1-1, N-[(4-Hydroxy-2-oxo-1-{[4′-(trifluoromethyl)biphenyl-4-yl]methyl}-9-oxa-1-azaspiro[5.5]undec-3-en-3-yl)carbonyl]glycine] |
| 94 | O=C(O)CNC(=O)C1=C(O)CC2(COC2)N(Cc2ccc(-c3ccccc3)cc2)C1=O [Ex. 1-2, N-{[5-(Biphenyl-4-ylmethyl)-8-hydroxy-6-oxo-2-oxa-5-azaspiro[3.5]non-7-en-7-yl]carbonyl}glycine] |
| 50 | O=C(O)CNC(=O)C1=C(O)C2(CCCCC2)CN(Cc2ccccc2)C1=O [Ex. 1-6] |
| 54 | O=C(O)CNC(=O)C1=C(O)C2(CCCCC2)CN(Cc2ccc3ccccc3c2)C1=O [Ex. 1-7] |
| 90 | O=C(O)CNC(=O)C1=C(O)CCN(CC2CCC(c3ccccc3)CC2)C1=O (stereo not drawn) [Ex. 1-26] |

biological target: T1, human PHD2; assay: Test 2: human PHD2 inhibitory activity, fluorescence polarization assay of HIF-1α peptide proline hydroxylation; assay type: biochemical; settings: read-out: Percent inhibition (% at 1 μM)
Method in brief: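 A 19-mer HIF-1α peptide served as substrate, with the reaction started by 40 ng/well human PHD2 (cell lysate of NM_022051-transfected cells) and run 20 min at 30° C. before EDTA stop. Hydroxylated product bound anti-HIF-OH antibody, read by fluorescence polarization versus no-compound control.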

| Structure (SMILES) | inhibition at 1 µM [%] |
| --- | --- |
| CC1CN(Cc2ccc(OC(F)(F)F)cc2)C(=O)C(C(=O)NCC(=O)O)=C1O (stereo not drawn) [Ex. 1-3, N-({4-Hydroxy-5-methyl-2-oxo-1-[4-(trifluoromethoxy)benzyl]-1,2,5,6-tetrahydropyridin-3-yl}carbonyl)glycine sodium salt] | 78 |
| CC1(C)CC(O)=C(C(=O)NCC(=O)O)C(=O)N1CC(=O)NCc1ccc(-c2ccccc2)cc1 [Ex. 10-1, N-[(1-{2-[(4-Biphenylylmethyl)amino]-2-oxoethyl}-4-hydroxy-6,6-dimethyl-2-oxo-1,2,5,6-tetrahydro-3-pyridinyl)carbonyl]glycine sodium salt] | 34 |

same assay, conditions: test compound's concentration 1 μM; Test 2, fluorescence polarization assay; read-out: Percent inhibition (% at 1 μM)

| inhibition at 1 µM [%] | Structure (SMILES) |
| --- | --- |
| 94 | O=C(O)CNC(=O)C1=C(O)CC2(CCOCC2)N(Cc2ccc(-c3ccc(C(F)(F)F)cc3)cc2)C1=O [Ex. 1-1, N-[(4-Hydroxy-2-oxo-1-{[4′-(trifluoromethyl)biphenyl-4-yl]methyl}-9-oxa-1-azaspiro[5.5]undec-3-en-3-yl)carbonyl]glycine] |
| 92 | O=C(O)CNC(=O)C1=C(O)CC2(COC2)N(Cc2ccc(-c3ccccc3)cc2)C1=O [Ex. 1-2, N-{[5-(Biphenyl-4-ylmethyl)-8-hydroxy-6-oxo-2-oxa-5-azaspiro[3.5]non-7-en-7-yl]carbonyl}glycine] |
| 57 | O=C(O)CNC(=O)C1=C(O)C2(CCCCC2)CN(Cc2ccccc2)C1=O [Ex. 1-6] |
| 68 | O=C(O)CNC(=O)C1=C(O)C2(CCCCC2)CN(Cc2ccc3ccccc3c2)C1=O [Ex. 1-7] |
| 86 | O=C(O)CNC(=O)C1=C(O)CN(Cc2ccc(OCC3CC3)cc2)C1=O [Ex. 6-7] |
| 83 | CC1C(O)=C(C(=O)NCC(=O)O)C(=O)N1Cc1ccc(OCC2CC2)cc1 (stereo not drawn) [Ex. 6-8] |
| 85 | CC1(C)C(O)=C(C(=O)NCC(=O)O)C(=O)N1Cc1ccc(OCC2CC2)cc1 [Ex. 6-9] |
| 76 | O=C(O)CNC(=O)C1=C(O)C[C@H](c2ccccc2)N(Cc2ccc(OCC3CC3)cc2)C1=O [Ex. 6-10] |
| 73 | O=C(O)CNC(=O)C1=C(O)C[C@@H](c2ccccc2)N(Cc2ccc(OCC3CC3)cc2)C1=O [Ex. 6-11] |
| 67 | CC1CC(O)=C(C(=O)NCC(=O)O)C(=O)N1Cc1ccc(OCC2CC2)cc1 (stereo not drawn) [Ex. 6-12] |
| 81 | O=C(O)CNC(=O)C1=C(O)CC2(CCOCC2)N(Cc2ccc(OCC3CC3)cc2)C1=O [Ex. 6-13] |
| 80 | O=C(O)CNC(=O)C1=C(O)CC2(COC2)N(Cc2ccc(OCC3CC3)cc2)C1=O [Ex. 6-14] |
| 55 | NC(=O)[C@H]1CC(O)=C(C(=O)NCC(=O)O)C(=O)N1Cc1ccc(OCC2CC2)cc1 [Ex. 6-15] |
| 26 | NC(=O)[C@@H]1CC(O)=C(C(=O)NCC(=O)O)C(=O)N1Cc1ccc(OCC2CC2)cc1 [Ex. 6-16] |
| 32 | CC1(C)CC(O)=C(C(=O)NCC(=O)O)C(=O)N1CC1CCN(c2ncccn2)CC1 [Ex. 6-17] |
| 24 | CC1(C)CC(O)=C(C(=O)NCC(=O)O)C(=O)N1CC1CCN(C(=O)CC2CC2)CC1 [Ex. 6-18] |
| 72 | O=C(O)CNC(=O)C1=C(O)C[C@H](c2cccnc2)N(Cc2ccc(OCC3CC3)cc2)C1=O [Ex. 6-19] |
| 84 | O=C(O)CNC(=O)C1=C(O)C[C@@H](c2cccnc2)N(Cc2ccc(OCC3CC3)cc2)C1=O [Ex. 6-20] |
| 85 | O=C(O)CNC(=O)C1=C(O)C[C@@H](Cc2ccccc2)N(Cc2ccc(OCC3CC3)cc2)C1=O [Ex. 6-21] |
| 88 | O=C(O)CNC(=O)C1=C(O)C[C@H](Cc2ccccc2)N(Cc2ccc(OCC3CC3)cc2)C1=O [Ex. 6-22] |
| 85 | O=C(O)CNC(=O)C1=C(O)C2(CCCCC2)CN(Cc2ccc(OCC3CC3)cc2)C1=O [Ex. 6-23] |
| 78 | O=C(O)CNC(=O)C1=C(O)CC2(CCCCC2)N(Cc2ccc(OCC3CC3)cc2)C1=O [Ex. 6-24] |
| 49 | CC1(C)CC(O)=C(C(=O)NCC(=O)O)C(=O)N1Cc1ccc(OCC(N)=O)cc1 [Ex. 6-25] |

| inhibition at 1 µM [%] | Structure (SMILES) |
| --- | --- |
| 16 | CC1(C)CC(O)=C(C(=O)NCC(=O)O)C(=O)N1CC1CCN(Cc2ccccc2)CC1 [Ex. 6-26] |
| 51 | CC(C)[C@H]1CC(O)=C(C(=O)NCC(=O)O)C(=O)N1Cc1ccc(OCC2CC2)cc1 [Ex. 6-27] |
| 42 | CC(C)[C@@H]1CC(O)=C(C(=O)NCC(=O)O)C(=O)N1Cc1ccc(OCC2CC2)cc1 [Ex. 6-28] |
| 69 | CC1(C)CC(O)=C(C(=O)NCC(=O)O)C(=O)N1Cc1ccc(OCC2CC2)nc1 [Ex. 6-29] |
| 45 | O=C(O)CNC(=O)C1=C(O)C[C@H](CO)N(Cc2ccc(OCC3CC3)cc2)C1=O [Ex. 6-30] |
| 44 | O=C(O)CNC(=O)C1=C(O)C[C@@H](CO)N(Cc2ccc(OCC3CC3)cc2)C1=O [Ex. 6-31] |
| 4 | CC1(C)CC(O)=C(C(=O)NCC(=O)O)C(=O)N1CC1CN(c2ncccn2)C1 [Ex. 6-32] |
| 68 | CC1(C)CC(O)=C(C(=O)NCC(=O)O)C(=O)N1Cc1ccc(OCC2CC2)nn1 [Ex. 6-33] |
| 70 | COC[C@@H]1CC(O)=C(C(=O)NCC(=O)O)C(=O)N1Cc1ccc(OCC2CC2)cc1 [Ex. 6-34] |
| 60 | CC1(C)CC(O)=C(C(=O)NCC(=O)O)C(=O)N1Cc1cnc(OCC2CC2)cn1 [Ex. 6-35] |
| 30 | CN(C)C[C@@H]1CC(O)=C(C(=O)NCC(=O)O)C(=O)N1Cc1ccc(OCC2CC2)cc1 [Ex. 6-36] |
| 97 | O=C(O)CNC(=O)C1=C(O)CC2(CCN(C(=O)c3ccccc3)CC2)N(Cc2ccc(-c3ccccc3)cc2)C1=O [Ex. 7-1, N-{[9-Benzoyl-1-(4-biphenylylmethyl)-4-hydroxy-2-oxo-1,9-diazaspiro[5.5]undec-3-en-3-yl]carbonyl}glycine] |
| 88 | O=C(O)CNC(=O)C1=C(O)CC2(CCN(Cc3ccccc3)CC2)N(Cc2ccc(-c3ccccc3)cc2)C1=O [Ex. 7-2, N-{[9-Benzyl-1-(4-biphenylylmethyl)-4-hydroxy-2-oxo-1,9-diazaspiro[5.5]undec-3-en-3-yl]carbonyl}glycine trifluoroacetate] |
| 65 | O=C(O)CNC(=O)C1=C(O)CC2(CCN(C(=O)c3ccccc3)CC2)N(Cc2ccccc2)C1=O [Ex. 7-3, N-[(9-Benzoyl-1-benzyl-4-hydroxy-2-oxo-1,9-diazaspiro[5.5]undec-3-en-3-yl)carbonyl]glycine] |
| 16 | COc1ccc(CN2CCC(O)=C(C(=O)NCC(=O)NO)C2=O)cc1 [Ex. 8-1, 4-Hydroxy-N-[2-(hydroxyamino)-2-oxoethyl]-1-(4-methoxybenzyl)-2-oxo-1,2,5,6-tetrahydro-3-pyridinecarboxamide] |
| 29 | COc1ccc(CN2CCC(O)=C(C(=O)NCCC(=O)O)C2=O)cc1 [Ex. 9-1, N-{[4-Hydroxy-1-(4-methoxybenzyl)-2-oxo-1,2,5,6-tetrahydro-3-pyridinyl]carbonyl}-β-alanine] |
| 23 | COc1ccc(CN2CCC(O)=C(C(=O)NCCCC(=O)O)C2=O)cc1 [Ex. 9-2] |
| 1 | COc1ccc(CN2CCC(O)=C(C(=O)N[C@H](C)C(=O)O)C2=O)cc1 [Ex. 9-3] |
| 42 | COc1ccc(CN2CCC(O)=C(C(=O)N[C@@H](C)C(=O)O)C2=O)cc1 [Ex. 9-4] |
| 3 | COc1ccc(CN2CCC(O)=C(C(=O)N(C)CC(=O)O)C2=O)cc1 [Ex. 9-5, N-{[4-Hydroxy-1-(4-methoxybenzyl)-2-oxo-1,2,5,6-tetrahydro-3-pyridinyl]carbonyl}-N-methylglycine] |
| 6 | CC1(C)CC(O)=C(C(=O)NCC(=O)O)C(=O)N1CC(=O)NCc1ccc(C(F)(F)F)cc1 [Ex. 10-2] |
| 10 | CN(Cc1ccc(F)cc1)C(=O)CN1C(=O)C(C(=O)NCC(=O)O)=C(O)CC1(C)C [Ex. 10-4] |
| 96 | O=C(O)CNC(=O)C1=C(O)CCN(C(CO)c2ccc(-c3ccc(F)cc3)cc2)C1=O (stereo not drawn) [Ex. 11-1, N-({1-[1-(4′-Fuoro-4-biphenylyl)-2-hydroxyethyl]-4-hydroxy-2-oxo-1,2,5,6-tetrahydro-3-pyridinyl}carbonyl)glycine] |
